Measured values from patent US9513288B2, “Isoform-selective inhibitors and activators of PDE3 cyclic nucleotide phosphodiesterases” (The United States of America, as represented by the …, priority 2001, dated 2016).
Where two headings read alike, the source gives them in different places.

Tests used:
PDE3A1 [1] = test: cAMP-hydrolytic activity of FLAG-tagged PDE3A1 in transfected HEK293 cells; format: cell-based, human; conditions: 1 mM dBcAMP 1 hour; for cAMP-hydrolytic activity of PDE3A1: 1 μM isoproterenol 90 sec, 50 μM 8-pCPT-2′-O-Me-cAMP or 0.1 mM sodium butyrate 1 hour
Protocol: FIG. 3 Illustrates an illustrative effect of d8-pCPT-2′-O-Me-cAMP and sodium butyrate on PDE3A1 activity, wherein HEK293 cells were transfected with FLAG-tagged PDE3A and treated with 50 μM d8-pCPT-2′-O-Me-cAMP, 0.1 mM sodium butyrate or 1 mM dBcAMP for 1 hour. PDE3A activity was assayed as described;
(§1) FIGS. 9A-9B illustrate stimulation of PDE3A2 and PDE3A1 activity in response to PKC and PKA activation. (A) HEK293 cells were transfected with FLAG-tagged PDE3A2, with and without alanine substitution at S428, and treated with 10 ng/ml PMA for 15 min or 1 mM dBcAMP for 1 hour. (B) HEK293 cells were transfected with FLAG-tagged PDE3A1, with and without alanine substitutions at S312 and S428, and treated with 1 μM isoproterenol for 90 sec, 10 ng/ml PMA for 15 min or 1 mM dBcAMP for 1 hour. PDE3 activity was assayed as described. PDE3A constructs were immunoprecipitated with anti-FLAG antibody, and phosphorylation was analyzed by immunoblotting with anti-FLAG and phosphospecific antibodies as indicated; and
(§2) PKA and PKC modulate the catalytic activity of PDE3A and PDE3A2 through distinct molecular mechanisms: In view of the reported effects of PKA and PKC on PDE3A activity^3-6, we examined the effects of phosphorylation at S312 and S428 on the cAMP-hydrolytic activity of PDE3A isoforms in transfected HEK293 cells. […] This stimulation was not observed when cells were treated with either the EPAC activator 8-pCPT-2′-O-Me-cAMP or with sodium butyrate (FIG. 3). […] To determine whether similar consequences of phosphorylation occur in the case of PDE3A isoforms, protein extracts from transfected HEK293 cells, untreated or exposed to either isoproterenol or PMA, were analyzed by gel-filtration chromatography, measurement of catalytic activity and Western blotting. Under basal conditions, PDE3 activity and protein was recovered in a biphasic pattern in low- and high-molecular-weight peaks (FIG. 5).
(§3) Measurement of cAMP-hydrolytic activity: cAMP-hydrolytic activity was quantified at 30° C. by the two-step snake-venom method with [^3H]cAMP (1 μM) as substrate; PDE3 activity was quantified by measuring activity in the absence and presence of cilostamide. The amount of protein used per assay and the incubation times were adjusted to ensure that no more than 20% of the total cyclic nucleotide was hydrolyzed during the assay.
(§4) Treatment of cells with pharmacologic agents: HEK293 cells expressing the human PDE3A constructs were incubated at 37° C. in serum-free medium containing isoproterenol for 90 sec or PMA for 15 min. At the end of the incubation period, cells were solubilized in lysis buffer containing 20 mM MOPS pH 7.2, 15 mM MgCl2, 0.5% NP40, 150 mM NaCl, 5 mM EDTA, protease inhibitor cocktail and phosphatase inhibitor cocktail 3. Cellular debris was removed by centrifugation (1,000×g; 5 min), and cleared supernatants were used in the experiments.

PDE3 = test: cAMP-hydrolytic activity in cytosolic and microsomal fractions of human myocardium; format: biochemical
[2] = treatment of dilated cardiomyopathy; cited from earlier work
PDE3A1 [3] = test: Gel-filtration chromatography and two-dimensional analysis of proteins co-immunoprecipitated with PDE3A1 from transfected HEK293 cells; format: cell-based, human; conditions: 1 μM isoproterenol 90 sec
Protocol: (§5) FIGS. 5A-5B Illustrate two-dimensional analysis of HEK293 cell proteins co-immunoprecipitated with PDE3A, wherein FLAG-tagged PDE3A1- and PDE3A2-transfected HEK293 cells were treated with 1 μM isoproterenol for 90 sec or 10 ng/ml PMA for 15 min, respectively; untransfected, untreated cells served as controls. PDE3A1 and PDE3A2 were immunoprecipitated with anti-FLAG antibody. PDE3A isoforms and co-immunoprecipitated proteins were eluted with 250 μg/ml of 3×FLAG peptide and submitted to isoelectric focusing followed by SDS-PAGE. Proteins were visualized by silver staining, and spots were quantified and analyzed for inter-gel comparison using PDquest 8.1 software. Experiments were carried out in triplicate, such that (A) Images from one experiment are shown. […]
(§6) PKA and PKC modulate the catalytic activity of PDE3A and PDE3A2 through distinct molecular mechanisms: In view of the reported effects of PKA and PKC on PDE3A activity^3-6, we examined the effects of phosphorylation at S312 and S428 on the cAMP-hydrolytic activity of PDE3A isoforms in transfected HEK293 cells. […] To determine whether similar consequences of phosphorylation occur in the case of PDE3A isoforms, protein extracts from transfected HEK293 cells, untreated or exposed to either isoproterenol or PMA, were analyzed by gel-filtration chromatography, measurement of catalytic activity and Western blotting. […]

PDE3A1 [4] = test: Phosphorylation and 14-3-3 binding of FLAG-tagged PDE3A1 in transfected HEK293 cells; format: cell-based, human; conditions: PMA 10 ng/ml 15 min; for binding of PDE3A1 to endogenous 14-3-3 (co-immunoprecipitation) / phosphorylation of PDE3A1 at S312: isoproterenol 90 sec; for phosphorylation of PDE3A1 at S312 / phosphorylation of PDE3A1 at S428: dibutyryl cAMP 1 mM 1 hour, phosphospecific antibodies
Protocol: (§7) FIGS. 8A-8C Illustrate phosphorylation of PDE3A1 and PDE3A2 in response to PKA and PKC activation. HEK293 cells were transfected with FLAG-tagged PDE3A2 and PDE3A1. (A) Prior to lysis and immunoprecipitation with anti-FLAG antibodies, cells were treated with 1 µM isoproterenol for 90 sec or 10 ng/ml PMA for 15 min. (B) The experiment was carried out in cells incubated in the absence and presence of 100 μM IBMX before treatment with 1 µM isoproterenol for 90 sec. (C) FLAG-tagged PDE3A2 and PDE3A1, affinity-purified from transfected cells using anti-FLAG antibodies, were incubated in the absence or presence of 10 or 100 nM PKA and 200 μM ATP for 20 min at 30° C. Phosphorylation was analyzed by Western blotting with phosphospecific antibodies as indicated.
(§8) Furthermore, when affinity-purified FLAG-tagged PDE3A and PDE3A2 were phosphorylated in vitro by PKA, PDE3A2 was phosphorylated more robustly than PDE3A1 at both S312 and S428 (for both isoforms, S312 was phosphorylated more robustly than S428) […].
(§9) Activation of PKC by PMA in transfected HEK293 cells results in selective phosphorylation of PDE3A2 at S428: We compared the effects of PKC activation by PMA on the phosphorylation of FLAG-tagged PDE3A1 and PDE3A2 in transfected HEK293 cells.
(§10) Illustrative immunoprecipitation and immunoblotting: Endogenous or recombinant human PDE3A, its fragments or mutants, endogenous 14-3-3 or GST-14-3-3 proteins were immunoprecipitated by incubation overnight at 4° C. with anti-FLAG(M2)-coupled agarose beads or glutathione sepharose beads. Beads were centrifuged (5,000×g, 1 min) and washed four times with 1 ml buffer containing 20 mM MOPS pH 7.2, 15 mM MgCl2, 0.5% NP40 and 150 mM NaCl. Proteins were subjected to SDS-PAGE (8% polyacrylamide) and electrophoretic transfer to nitrocellulose membranes. Membranes were blocked using 5% nonfat milk in Tris-buffered saline (50 mM Tris pH 7.5, 150 mM NaCl, 0.1% Tween-20) for 1 h at room temperature and incubated with primary and HRP-conjugated secondary antibodies prepared in 5% (w/v) bovine serum albumin. Protein bands were visualized using an enhanced chemiluminescence detection system.
as §4

PDE3A2 [5] = test: cAMP-hydrolytic activity of FLAG-tagged PDE3A2 in transfected HEK293 cells; format: cell-based, human; conditions: 10 ng/ml PMA 15 min, 1 mM dBcAMP 1 hour; for cAMP-hydrolytic activity of PDE3A2: isoproterenol
Protocol: as §1, §2, §3, §4

PDE3A2 [6] = test: Phosphorylation and 14-3-3 binding of FLAG-tagged PDE3A2 in transfected HEK293 cells; format: cell-based, human; conditions: for phosphorylation of PDE3A2 at S312 / phosphorylation of PDE3A2 at S428: isoproterenol 90 sec, dibutyryl cAMP 1 mM 1 hour, phosphospecific antibodies
Protocol: as §7, §8, §9, §10, §4

PDE3A2 [7] = test: Gel-filtration chromatography and two-dimensional analysis of proteins co-immunoprecipitated with PDE3A2 from transfected HEK293 cells; format: cell-based, human; conditions: 10 ng/ml PMA 15 min; isoelectric focusing and SDS-PAGE
Protocol: as §5, §6

3T3 adipocytes = test: Association of PKB with PDE3B in microsomal fractions of 3T3 adipocytes; format: cell-based; conditions: not shown
Text: The interactions of PKB with PDE3B were examined. Microsomal fractions of 3T3 adipocytes (which express PDE3B) were solubilized with NP-40 and fractionated by gel filtration. […] An association between PKB and PDE3B was confirmed by the ability of anti-PDE3B antibodies to co-immunoprecipitate the two proteins in the PDE3B peak (not shown).

In the case of `CO[C@@H]1[C@@H]2OP(=O)(O)OC[C@H]2O[C@H]1n1c(Sc2ccc(Cl)cc2)nc2c(N)ncnc21` [8-pCPT-2′-O-Me-cAMP], the “cAMP-hydrolytic activity of PDE3A1” value (PDE3A1 [1]) is reported as “not observed”.

With `CCCC(=O)[O-].[Na+]` [sodium butyrate] the “cAMP-hydrolytic activity of PDE3A1” value (PDE3A1 [1]) was “not observed”.

In the case of `Cc1[nH]c(=O)c(C#N)cc1-c1ccncc1` [milrinone], the “effects on cAMP-hydrolytic activity” value (PDE3) is reported as “more potent effects in microsomal fractions”.

For `Nc1cc(-c2ccncc2)c[nH]c1=O` [amrinone], the initial hemodynamic responses [2] is listed as “favorable hemodynamic responses”.

For `CC(C)NCC(O)c1ccc(O)c(O)c1` (centres unmarked) [isoproterenol], the “elution of PDE3 activity and protein on Superose 6 gel filtration, PDE3A1-transfected cells” value (PDE3A1 [3]) was “pronounced shift of activity and protein from low- to high-molecular-weight peaks”, the “number of proteins co-immunoprecipitated with PDE3A1” value (PDE3A1 [3]; isoelectric focusing and SDS-PAGE) was “increased the number of proteins that co-immunoprecipitated with PDE3A1” and the “binding of PDE3A1 to endogenous 14-3-3 (co-immunoprecipitation)” value (PDE3A1 [4]) was “co-immunoprecipitation of endogenous 14-3-3”. For the same molecule, the “phosphorylation of PDE3A1 at S312” value (PDE3A1 [4]) was “phosphorylation of PDE3A1 at S312”, the “cAMP-hydrolytic activity of PDE3A2” value (PDE3A2 [5]) was “no stimulation of either isoform” and the “phosphorylation of PDE3A2 at S312 in the presence of IBMX” value (PDE3A2 [6]; 100 μM IBMX before isoproterenol for 90 sec) was “readily phosphorylated at S312”. For the same molecule, the “phosphorylation of PDE3A2 at S312” value (PDE3A2 [6]; PMA 10 ng/ml 15 min) was “little phosphorylation of PDE3A2”, the “phosphorylation of PDE3A2 at S428” value (PDE3A2 [6]; PMA 10 ng/ml 15 min) was “little phosphorylation of PDE3A2” and the “cAMP-hydrolytic activity of PDE3A1” value (PDE3A1 [1]) was “did not stimulate cAMP-hydrolytic activity”.

With `O=C1CCc2cc(OCCCCc3nnnn3C3CCCCC3)ccc2N1` [cilostazol] the “effects on cAMP-hydrolytic activity” value (PDE3; cytosolic versus microsomal fractions of human myocardium) was “more potent effects in microsomal fractions”.

For `CCCC(=O)Nc1ncnc2c1ncn2[C@@H]1O[C@@H]2COP(=O)(O)O[C@H]2[C@H]1OC(=O)CCC` [dibutyryl cAMP], the “phosphorylation of PDE3A1 at S428” value (PDE3A1 [4]) was “significant increase in the phosphorylation of PDE3A at both S312 and S428”, the “phosphorylation of PDE3A1 at S312” value (PDE3A1 [4]) was “significant increase in the phosphorylation of PDE3A at both S312 and S428” and the “stimulation of cAMP-hydrolytic activity of PDE3A2 with S428A substitution” value (PDE3A2 [5]) was “similarly blocked by the S428A mutation”. For the same molecule, the “phosphorylation of PDE3A2 at S312” value (PDE3A2 [6]; PMA 10 ng/ml 15 min) was “phosphorylation at both S312 and S428”, the “phosphorylation of PDE3A2 at S428” value (PDE3A2 [6]; PMA 10 ng/ml 15 min) was “phosphorylation at both S312 and S428” and the “cAMP-hydrolytic activity of PDE3A1” value (PDE3A1 [1]) was “stimulation of cAMP-hydrolytic activity”. The “cAMP-hydrolytic activity of PDE3A1 construct with S312A and S428A substitutions” value (PDE3A1 [1]) was “same stimulation of catalytic activity”.

With `CCCCCCCCCCCCCC(=O)O[C@@H]1[C@@H](C)[C@@]2(O)[C@@H](C=C(CO)C[C@]3(O)C(=O)C(C)=C[C@@H]23)[C@@H]2C(C)(C)[C@]12OC(C)=O` [PMA] the “phosphorylation of PDE3A1 at S428” value (PDE3A1 [4]) was “little increase in phosphorylation at S428”, the “binding of PDE3A1 to endogenous 14-3-3 (co-immunoprecipitation)” value (PDE3A1 [4]) was “little increase in binding to endogenous 14-3-3” and the “phosphorylation of PDE3A1 at S312” value (PDE3A1 [4]) was “no increase in phosphorylation of S312”. The “stimulation of cAMP-hydrolytic activity of PDE3A2 with S428A substitution” value (PDE3A2 [5]) was “blocked”, the “cAMP-hydrolytic activity of PDE3A2” value (PDE3A2 [5]) was “increase in cAMP-hydrolysis” and the “binding of PDE3A2 to endogenous 14-3-3 (co-immunoprecipitation)” value (PDE3A2 [6]; PMA 10 ng/ml 15 min) was “increased binding to endogenous 14-3-3”. For the same molecule, the “phosphorylation of PDE3A2 at S312” value (PDE3A2 [6]; PMA 10 ng/ml 15 min) was “no increase in phosphorylation at S312”, the “phosphorylation of PDE3A2 at S428” value (PDE3A2 [6]; PMA 10 ng/ml 15 min) was “marked increase in phosphorylation at S428” and the “number of proteins co-immunoprecipitated with PDE3A2” value (PDE3A2 [7]) was “increased the number of proteins that co-immunoprecipitated with PDE3A2”.

In the case of “insulin: insulin, used to treat 3T3 adipocytes”, the “percentage of PKB co-purifying with PDE3B” value (3T3 adipocytes; gel filtration) is reported as “appeared to increase the percentage of PKB co-purifying with PDE3B” and the “phosphorylation of PKB” value (3T3 adipocytes) is reported as “increased the phosphorylation of PKB”.
